Data reported in patent US10173988B2, “N2-(3,4-dimethylphenyl)-6-((4-(p-tolyl)piperazin-1-yl)methyl)-1,3,5-triazine-2,4-diamine” (GLUCOX BIOTECH AB, priority 2015, dated 2019).

Legend:
[1] = molecular target: human Nox1 (Homo sapiens (Human), UniProt Q9Y5S8); experiment: Nox1 whole cell luminescence assay (luminol, PMA-stimulated); assay type: cell-based; details: CHO cells stably expressing human Nox1
Protocol: CHO cells modified to stably express human Nox1 were grown in DMEM/F12 gibco 31331 containing 10% FBS and 1% pen/strep at 37° C. in air with 5% CO2. Cells were collected from cultures by Trypsin mediated detachment of adherent cells.
A luminescence assay was used that measures the production of reactive oxygen species in whole cells. Luminol reacts with superoxide and emits light and light is measured with luminometer (Synergy/2 microplate reader, BioTek).
Inhibitors were diluted in a compound plate in DMSO (100%) then transferred to Hanks buffer solution and in assay plate DMSO were 2% in all the wells.
Assay procedure, final well volume 100 μl, 96-well plate: Inhibitors (20 μl) were added, then cell suspension was (100 000 cells/well), incubate 37° C. for 30 min, add PMA (0.9 μM/well) to Luminol reaction mix (Luminol 0.1 mM/well and HRP 3.2 U/well) then this stimulation mix into wells. The plate were then immediately read (steps 5 min each reading) and for 1 h. Data was calculated for the linear part of the curve and IC50 determined.
Compounds (Nox inhibitors) were diluted at 3× working concentration and titrated from 200 μM to 0.003 μM in 11 steps

[2] = Caco-2 permeability assay; assay type: in vitro ADME; details: human, Caco-2; for Papp A→B at 60 min: apical to basolateral; for Papp A→B at 60 min / Papp B→A at 60 min: pH 7.4, 37° C., test concentration 1 to 10 μM; for Papp B→A at 60 min: basolateral to apical; for efflux ratio at 60 min: Papp (b-a) divided by Papp (a-b)
Protocol: (§1) Caco-2 membrane permeability was performed in accordance with published protocols. [Hubatch] Caco-2 cell monolayers (passage 94-105) were grown on permeable filter support and used for transport study on day 21 after seeding. Prior to the experiment a drug solution of 10 μM was prepared and warmed to 37° C.
(§2) The Caco-2 filters were washed with prewarmed HBSS prior to the experiment, and thereafter experiment was started by applying the donor solution on the apical side or basolateral side, depending on which direction that was monitored. The transport experiments were carried out at pH 7.4 in both the apical and basolateral chambers. The experiments were performed at 37° C. and with a stirring rate of 500 rpm. The receiver compartment was sampled at 15, 30, and 60 min, and at 60 min also a final sample from the donor chamber was taken in order to calculate the mass balance of the compound. Directly after the termination of experiment the filter inserts were washed with prewarmed HBSS and the membrane integrity was checked. This was performed by trans-epithelial electrical resistance (TEER) measurement. The experiment was validated by inclusion of the para-cellular marker 14Cmannitoland monitoring its permeability during the experiments. Mannitol is a para-cellular marker used for cell monolayer integrity measurements.
(§3) Test compounds were thus added to either the apical or basolateral side of the Caco-2 cell layer, to measure permeability in the absorptive (apical to basolateral, Papp (a-b)) or secretive (basolateral to apical Papp (a-b) directions, respectively. The efflux is calculated as Papp (b-a) divided by Papp (a-b). The results are presented in Table 3.

[3] = test system: Caco-2 cell monolayers; experiment: Caco-2 permeability assay; assay type: in vitro ADME; details: mass balance
Protocol: as §1, §2, §3

[4] = molecular target: Nox4 (Homo sapiens (Human), UniProt Q9NPH5); experiment: Nox4 whole cell assay (Amplex red, hydrogen peroxide); assay type: cell-based; details: HEK (CJ Nox4) cells stably expressing Nox4
Sequence of Nox4 (Q9NPH5 whole entry, species assumed): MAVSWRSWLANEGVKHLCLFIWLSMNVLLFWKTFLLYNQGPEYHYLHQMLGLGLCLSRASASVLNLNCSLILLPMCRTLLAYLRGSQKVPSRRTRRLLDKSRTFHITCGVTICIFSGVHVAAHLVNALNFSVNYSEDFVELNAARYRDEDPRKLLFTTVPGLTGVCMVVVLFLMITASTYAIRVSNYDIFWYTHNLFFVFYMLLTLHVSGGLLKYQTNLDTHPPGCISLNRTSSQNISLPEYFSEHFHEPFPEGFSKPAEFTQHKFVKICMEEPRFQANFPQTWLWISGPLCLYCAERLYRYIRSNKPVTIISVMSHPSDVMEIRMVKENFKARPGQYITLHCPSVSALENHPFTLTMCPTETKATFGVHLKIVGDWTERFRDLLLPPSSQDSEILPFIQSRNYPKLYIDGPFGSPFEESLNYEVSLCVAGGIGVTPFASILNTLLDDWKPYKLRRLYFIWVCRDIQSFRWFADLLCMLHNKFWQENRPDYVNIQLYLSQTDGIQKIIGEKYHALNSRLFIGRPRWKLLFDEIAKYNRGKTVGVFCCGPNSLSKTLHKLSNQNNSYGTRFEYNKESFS
Sequence of Nox4 (P13498 2-195 partner, species assumed): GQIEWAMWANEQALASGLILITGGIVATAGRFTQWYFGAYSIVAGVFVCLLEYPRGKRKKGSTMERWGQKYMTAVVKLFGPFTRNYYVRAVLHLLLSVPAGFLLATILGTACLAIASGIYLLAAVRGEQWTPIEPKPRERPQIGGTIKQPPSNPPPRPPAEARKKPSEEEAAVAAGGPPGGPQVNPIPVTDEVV
Protocol: Cells: HEK (CJ Nox4) stably expressing Nox4 was purchased from Redoxis AB (Lund). The adherent cells were cultivated in RPMI 1640 with L-Glutamine were supplemented with FBS (10%), penicillin (10 U/ml) streptomycin (100 μg/ml) and neomycin (200 μg/ml) at 37° C. in air with 5% CO^2.
Hydrogen peroxide produced by Nox4 was measured (fluorescence emission: 590 and excitation: 544) using Amplex red (Molecular Probes) in Fluorescan Ascent plate reader Type 374. Cells were collected from cultures by Trypsin mediated detachment of adherent cells. Cells were seeded in 96-well plates at a density of 50 000 cells in […] assay volume. […] Nox4 activity was measured up to 100 min with readings every minute. […] Y-axes: turnover of hydrogen peroxide; x-axes: concentration of inhibitor. Inhibitors were diluted in a compound plate in DMSO (100%) then transferred to Hanks buffer solution and in assay plate DMSO were 2% in all the wells.
Compounds (Nox inhibitors) were diluted at 3× working concentration and titrated from 200 μM to 0.003 μM in 11 steps.

[5] = molecular target: Nox2 (Homo sapiens (Human), UniProt P04839); experiment: Nox2 whole cell assay in isolated neutrophils (isoluminol, PMA-stimulated); assay type: cell-based; details: PMA 30 ng/ml
Sequence of Nox2 (P04839 2-570): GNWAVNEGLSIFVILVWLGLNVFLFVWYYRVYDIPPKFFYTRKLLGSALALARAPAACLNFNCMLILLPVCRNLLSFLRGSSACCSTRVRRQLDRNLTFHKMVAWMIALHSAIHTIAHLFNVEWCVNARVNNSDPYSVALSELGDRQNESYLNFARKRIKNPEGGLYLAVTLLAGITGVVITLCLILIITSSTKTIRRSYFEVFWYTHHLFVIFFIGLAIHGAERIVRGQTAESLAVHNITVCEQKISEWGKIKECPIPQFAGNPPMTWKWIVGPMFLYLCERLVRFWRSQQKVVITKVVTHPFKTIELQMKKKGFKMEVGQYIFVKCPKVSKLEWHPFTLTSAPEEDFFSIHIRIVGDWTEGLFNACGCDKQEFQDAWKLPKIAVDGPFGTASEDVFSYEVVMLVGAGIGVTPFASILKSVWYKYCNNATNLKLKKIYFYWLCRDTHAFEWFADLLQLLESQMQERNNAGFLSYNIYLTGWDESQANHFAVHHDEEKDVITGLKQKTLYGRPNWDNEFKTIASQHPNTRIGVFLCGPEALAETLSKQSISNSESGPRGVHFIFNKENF
Sequence of Nox2 (P13498 2-195 partner): as the sequence (P13498 2-195 partner, species assumed) above
From the text: Cells: Human blood was purchased in buffy coat, prepared the same day for isolation of neutrophils, from Labjoy AB, Lund, Sweden. Blood components were separated by density gradient centrifugation using Ficoll-Paque Plus. Plasma, PBMCs and Ficoll were removed before erythrocytes were removed by dextran sedimentation. Remaining erythrocytes were lyses before neutrophils were washed and counted. Isolated neutrophils were kept on ice resuspended in HBSS without Mg and Ca until assayed.
Buffers: The isoluminol buffer contained Isoluminol (0.175 mg/ml) and HRP fraction II (1.75 U/ml). The buffer was prepared by diluting these ingredients at 4× working concentration in HBSS.
Procedures: Compounds (Nox inhibitors) were diluted at 4× working concentration and titrated from 100 μM to 0.006 μM in 1:4 steps. PMA was diluted in Isoluminol buffer at 4× working concentration for a final concentration of 30 ng/ml. […] 25 μl diluted compound or control/well were added to a white 96-well plate. 25 μl/well of PMA diluted in Isoluminol buffer was added to each well. To non-stimulated control wells only Isoluminol buffer was added. Neutrophils were washed and resuspended at 2×10^6 cells/ml in HBSS with Mg and Ca just before adding 50 μl of the neutrophil cell suspension/well, which was followed by immediate initiation of luminescence measurement. Luminescence was measured using a FluoStar Optima (BMG Labtech). Graphs were performed using Prism 5 for Mac OS X (Prism 5.0 Software, San Diego Calif. USA).

Sequence of human Nox1 (Q9Y5S8 whole entry): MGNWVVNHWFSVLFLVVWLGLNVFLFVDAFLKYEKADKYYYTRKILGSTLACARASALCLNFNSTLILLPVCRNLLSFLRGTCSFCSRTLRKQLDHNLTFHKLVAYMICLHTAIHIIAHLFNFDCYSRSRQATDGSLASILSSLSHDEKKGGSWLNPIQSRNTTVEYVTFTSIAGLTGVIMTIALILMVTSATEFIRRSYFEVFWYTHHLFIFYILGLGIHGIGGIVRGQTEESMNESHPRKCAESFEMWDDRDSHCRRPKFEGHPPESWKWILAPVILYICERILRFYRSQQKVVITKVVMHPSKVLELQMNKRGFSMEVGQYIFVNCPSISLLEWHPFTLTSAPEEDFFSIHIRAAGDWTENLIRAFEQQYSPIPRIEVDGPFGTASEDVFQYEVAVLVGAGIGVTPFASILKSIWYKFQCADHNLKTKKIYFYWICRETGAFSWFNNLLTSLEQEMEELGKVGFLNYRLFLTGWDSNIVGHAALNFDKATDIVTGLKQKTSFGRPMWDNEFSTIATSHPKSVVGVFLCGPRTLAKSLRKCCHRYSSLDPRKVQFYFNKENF
Sequence of human Nox1 (P13498 2-195 partner): as the sequence (P13498 2-195 partner, species assumed) above

Structure (SMILES)	IC50 [1] [µM]	Papp A→B at 60 min [2] [×10⁻⁶ cm/s]	Papp B→A at 60 min [2] [×10⁻⁶ cm/s]	MR ([3]; a-b direction) [%]	MR ([3]; b-a direction) [%]	IC50 [4] [µM]	efflux ratio at 60 min [2]	IC50 [5] [µM]
Cc1ccc(N2CCN(Cc3nc(N)nc(Nc4ccc(C)c(C)c4)n3)CC2)cc1 [inventive, N^2-(3,4-dimethylphenyl)-6-((4-(p-tolyl)piperazin-1-yl)methyl)-1,3,5-triazine-2,4-diamine]	66	12 ± 1.6	43 ± 5.8	13	14			
COc1cccc(N2CCN(Cc3nc(N)nc(Nc4ccc(C)c(C)c4)n3)CC2)c1 [A, N^2-(3,4-dimethylphenyl)-6-((4-(3-methoxyphenyl)piperazin-1-yl)methyl)-1,3,5-triazine-2,4-diamine]	66	35 ± 4	34 ± 4	17	12	1.68	1	1.68
Cc1cccc(N2CCN(Cc3nc(N)nc(Nc4ccc(C)c(C)c4)n3)CC2)c1 [C, N^2-(3,4-dimethylphenyl)-6-((4-(m-tolyl)piperazin-1-yl)methyl)-1,3,5-triazine-2,4-diamine]	162	2.4 ± 0.1	89 ± 27	37	67	1.68	37	59
COc1cccc(N2CCN(Cc3nc(N)nc(Nc4ccc(C)c(Cl)c4)n3)CC2)c1 [B, N^2-(3-chloro-4-methylphenyl)-6-((4-(3-methoxyphenyl)piperazin-1-yl)methyl)-1,3,5-triazine-2,4-diamine]	22	0.8 ± 0.2	43 ± 5	41	41	0.84	54	17
Cc1ccc(Nc2nc(N)nc(CN3CCN(c4ccc(Cl)cc4)CC3)n2)cc1C [D, 6-((4-(4-chlorophenyl)piperazin-1-yl)methyl)-N^2-(3,4-dimethylphenyl)-1,3,5-triazine-2,4-diamine]	200	1.9 ± 0.2	33 ± 11	40	16	1.68	17	15
